“Also recorded” adds a separate entry of the source.
Key:
FRPR-16 = target: T1, FRPR-16 (Caenorhabditis elegans, UniProt Q21957); assay: In vitro GPCR activation assay (CHO-K1, aequorin, Gα16), FRPR-16; assay type: cell-based, C. elegans; details: CHO-K1 aequorin/Gα16 calcium response
T1 sequence (Q21957 1-340): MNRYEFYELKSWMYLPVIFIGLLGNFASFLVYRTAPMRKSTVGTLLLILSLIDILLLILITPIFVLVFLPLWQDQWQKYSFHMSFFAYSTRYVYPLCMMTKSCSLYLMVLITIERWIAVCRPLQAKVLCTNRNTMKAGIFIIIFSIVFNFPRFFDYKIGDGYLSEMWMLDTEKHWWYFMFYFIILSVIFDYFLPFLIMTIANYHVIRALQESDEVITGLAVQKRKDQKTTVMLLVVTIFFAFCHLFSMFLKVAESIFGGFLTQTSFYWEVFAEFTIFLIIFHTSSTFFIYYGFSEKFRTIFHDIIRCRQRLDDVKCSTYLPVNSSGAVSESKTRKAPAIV
Experimental: (§1) The GPCR activation assay was performed as previously described[66],[74]. Briefly, npr-10 and frpr-16 cDNAs were cloned into the pcDNA3.1 TOPO expression vector (Thermo Fisher Scientific). A CHO-K1 cell line (PerkinElmer, ES-000-A24) stably expressing apo-aequorin targeted to the mitochondria (mtAEQ) and human Gα16 was transiently transfected with the receptor cDNA construct or the empty pcDNA3.1 vector using Lipofectamine LTX and Plus reagent (Thermo Fisher Scientific). Cells were shifted to 28 °C one day later and allowed to incubate for 24 h. On the day of the assay, cells were collected in BSA medium (DMEM/Ham’s F12 with 15 mM HEPES, without phenol red, 0.1% BSA) and loaded with […] coelenterazine h (Thermo Fisher Scientific) for 4 h at room temperature. The incubated cells were then added to synthetic peptides dissolved in DMEM/BSA, and luminescence was measured for 30 s at 496 nm using a Mithras LB940 (Berthold Technologies) or MicroBeta LumiJet luminometer (PerkinElmer). After 30 s of readout, 0.1% triton X-100 was added to lyse the cells, resulting in a maximal calcium response that was measured for 10 s. After initial screening, concentration-response curves were constructed for HPLC-purified FLP-3 peptides by subjecting the transfected cells to each peptide in a concentration range from 1 pM to 10 µM. Cells transfected with an empty vector were used as a negative control. Assays were performed in triplicate on at least two independent days. Concentration-response curves were fitted using Prism v. 7 (nonlinear regression analysis with a sigmoidal concentration-response equation).

[1] = system: flp-3 lof C. elegans males; assay: Peptide rescue-by-feeding, avoidance assay; assay type: in vivo; details: flp-3 lof males reared on bacteria expressing the peptide; 1 µM ascr#8 drop
Text: To identify which FLP-3 peptides are required for male avoidance of ascr#8, we adopted a peptide feeding approach, similar to RNAi feeding, as initially described previously[37],[59] (Fig. 6a). Using Gateway Cloning technology, we first inserted FLP-3 peptide coding sequences into a bacterial expression vector. As a control, we first tested the FLP-3 peptides that are still encoded in the ok3625 allele which are insufficient to drive the proper ascr#8 response in vivo: FLP-3-1 (SPLGTMRFamide) and FLP-3-4 (NPLGTMRFamide) (Supplementary Fig. 4). We then reared flp-3 lof animals on lawns of bacteria expressing the rescue constructs, and their progeny were assayed for avoidance (Fig. 6b–d, Supplementary Fig. 12).
DNA oligos containing the sequence for the peptides of interest were generated using Integrated DNA Technologies’ Ultramer synthesis service. The DNA sequence encoding the peptide sequence was flanked with sequences encoding EGL-3 cut sites (MRFGKR upstream, and KRK-STOP) downstream. These sites were then flanked with Gateway Cloning sites attB1 and attB2. Annealed oligos were then used to perform a BP reaction with pDONR p1-p2 to generate the pENTRY clones. […]
Assays were performed as described previously[4],[11],[41]. […] A drop of either water or 1 µM ascr#8 was placed on the tail of forward moving animals, and their response was scored as either an avoidance response, or no response. […]

NPR-10A = assay: In vitro GPCR activation assay (CHO-K1, aequorin, Gα16), NPR-10A; assay type: cell-based, C. elegans; details: CHO-K1 aequorin/Gα16 calcium response; Supplementary Fig. 10a
Experimental: This peptide contains an R-to-K mutation within the C-terminal motif, which may explain the lack of receptor activation.
as §1, with “After initial screening, concentration-response curves were constructed for HPLC-purified FLP-3 peptides by subjecting the transfected cells to each peptide in a concentration range from 1 pM to 10 µM. Cells transfected with an empty vector were used as a negative control. Assays were performed in triplicate on at least two independent days. Concentration-response curves were fitted using Prism v. 7 (nonlinear regression analysis with a sigmoidal concentration-response equation).” left out

NPR-10B = target: T2, NPR-10B (Caenorhabditis elegans, UniProt Q6EUU1); assay: In vitro GPCR activation assay (CHO-K1, aequorin, Gα16), NPR-10B; assay type: cell-based, C. elegans; details: CHO-K1 aequorin/Gα16 calcium response
T2 sequence (Q6EUU1 1-362): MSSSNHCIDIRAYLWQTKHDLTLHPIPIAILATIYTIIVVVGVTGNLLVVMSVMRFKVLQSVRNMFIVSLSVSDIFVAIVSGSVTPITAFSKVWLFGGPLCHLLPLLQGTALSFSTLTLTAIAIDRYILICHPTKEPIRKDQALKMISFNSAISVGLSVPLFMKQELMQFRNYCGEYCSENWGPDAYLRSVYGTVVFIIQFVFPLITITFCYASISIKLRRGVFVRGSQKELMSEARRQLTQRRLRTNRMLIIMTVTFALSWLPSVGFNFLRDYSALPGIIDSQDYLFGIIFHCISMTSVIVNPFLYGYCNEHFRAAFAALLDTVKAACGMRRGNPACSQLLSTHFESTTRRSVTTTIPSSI
Experimental: as §1

C. elegans [2] = assay: Drop avoidance assay; assay type: in vivo; details: Fig. 2c
Experimental: Because the defect in male response to ascr#8 was significant, and the SWAA was designed to detect attractive behaviors, we sought to determine if flp-3 loss-of-function (lof) animals were in fact avoiding ascr#8. Using a previously described drop avoidance assay[11],[41], we exposed forward moving animals to a drop of either vehicle control or ascr#8 and scored the avoidance index. […] The hermaphroditic behavior was unaffected by the loss of flp-3. (Fig. 2f). […] Assays were performed as described previously[4],[11],[41]. Fifty to sixty L4 worms were segregated by sex and stored at 20 °C for 5 h to overnight to be assayed as young adults. One to four hours prior to the assay, the lids of unseeded plates were tilted to allow any excess moisture to evaporate off the plates. At the time of the assay, 10 or more animals were transferred onto each of the dried, unseeded plates. A drop of either water or 1 µM ascr#8 was placed on the tail of forward moving animals, and their response was scored as either an avoidance response, or no response. The total number of avoidances was divided by the total number of drops to generate an avoidance index for that plate. This was repeated for at least 10 plates over at least three different days. Statistical comparisons within each strain were made by paired t-test against a significance level set at 0.05. […]

C. elegans [3] = details: males no longer attracted to higher concentrations; cited from earlier work
Text: Here, we investigate the neuronal mechanisms governing the behavioral attractive response of male C. elegans to ascr#8[28].

C. elegans [4] = assay: Single worm attraction assay (SWAA); assay type: in vivo
Experimental: We adapted the spot retention assay (Supplementary Fig. 1)[28],[38] to allow for better characterization of individual worm behavior and robust interrogation of attraction to small molecules. We first compared the attractiveness of 1 µM ascr#8 (Fig. 1a, inset) across multiple strains of C. elegans (the wild-type N2 strain, the high incidence of male him-5 and him-8 strains, and the chemosensory cilia defective osm-3), using our novel behavioral assay, the single worm attraction assay (SWAA) (Fig. 1a). In this assay, individual animals are placed directly into the spot of the ascaroside cue (A) while simultaneously removing any potential of male–male contact. A spatial control is included throughout the assay plate to allow us to investigate any innate differences in the number of visits to the well center, or the time spent therein, of which we have only found one strain to date with differences in male dwell time (Fig. 1a). Likewise, a vehicle control (V) is also included, to account of any changes in dwell time that are driven by the components of the vehicle. The outer forty wells of a 48-well suspension culture plate (Olympus Plastics, Cat #: 25-103) were seeded with 200 µL of standard NGM agar. To prepare the plates for the assay, they were acclimated to room temperature, at which point each well was seeded with 65 µL of OP50 E. coli. […] A single worm was placed in each of the 10 wells to be assayed, and the plate was transferred to a light source and camera and recorded for 15 m. […] Raw dwell time values were calculated by subtracting the time a worm exited the cue (center of the well in spatial controls), from the time it entered, as in the SRA[14]. This was determined per visit, and the average dwell time was calculated for each animal in the quadrant. Averages of the four-quadrant means were determined per plate, and a minimum of five plates were assayed per strain/condition. The mean raw dwell time across five plates was calculated and used for statistical analyses and graphical display. […] The number of visits per-worm was calculated, and the average visit count determined per quadrant, and per plate. The average visit count across five plates was calculated and used for statistical analyses and graphical display. An “attractive visit” was first determined for each plate as any visit greater than two standard deviations above the mean dwell time within the vehicle control for that plate. Any individual visit meeting this threshold was scored as a “1”, and any below was scored a “0”. The percent visits per-worm that were attractive was determined, and the average of each quadrant taken. […] The average percent of attractive visits across five plates was calculated and used for statistical analyses and graphical display. […]

Compound | Activation of FRPR-16, in words (FRPR-16) | Rescue of the ascr#8 avoidance phenotype, in words [1] | Activation of NPR-10A, in words (NPR-10A) | Activation of NPR-10 (NPR-10B), in words (NPR-10B) | Avoidance of the cue, in words (C. elegans [2]; flp-3 lof males) | Avoidance of the cue, in words (C. elegans [2]; wild-type males) | Concentration preferred by males (behavioral tuning curve) (C. elegans [3]) [µM] | Attractive visits to the cue (C. elegans [4]; 1 µM ascr#8, males of wild-type strains, Supplementary Fig. 2b) | Time spent in ascr#8 compared to the vehicle, in words (C. elegans [4]; hermaphrodites from all strains) | Time spent within ascr#8 spot compared to the vehicle control, in words (C. elegans [4]; males, all wild-type and him strains, Fig. 1b, c)
STVDSSEPVIRDQ [FLP-3-10, non-RFamide peptide encoded by the flp-3 gene] | activated no receptors; also recorded: did not activate either receptor | unable to rescue the avoidance phenotype | activated no receptors | activated no receptors; also recorded: failed to activate; also recorded: did not activate either receptor | – | – | – | – | – | –
C[C@H](CC/C=C/C(=O)Nc1ccc(C(=O)O)cc1)O[C@@H]1O[C@@H](C)[C@H](O)C[C@H]1O [ascr#8] | – | – | – | – | strongly avoided | did not avoid | ~1 | 30–45% | significantly less time | significant increase
